Laboratory results published in article PMC4266362 (Journal of Medicinal Chemistry, 2014).

Columns and labels:
[1] = biological target: melanocortin 4 receptor (MC4R) (Homo sapiens, UniProt P32245); assay: counter-screen against melanocortin 4 receptor; format: cell-based
glucagon receptor (GR) = glucagon receptor (GR) (Homo sapiens, UniProt P47871); assay: duplexed calcium mobilization assay, glucagon receptor; format: cell-based; conditions: EC20 of glucagon
primary mouse islets = assay: glucose-stimulated insulin secretion, static islet incubation; format: cell-based
human GLP-1R = human GLP-1R (Homo sapiens, UniProt P43220); assay: calcium mobilization PAM assay in human GLP-1R 9-3-H cells; format: cell-based
[2] = liver microsome predicted hepatic clearance, rat; format: in vitro ADME; conditions: well-stirred model
[3] = in vivo rat pharmacokinetics; conditions: male, Sprague-Dawley, plasma
[4] = in vivo rat brain distribution; conditions: Sprague-Dawley, intraperitoneal, 10 mg/kg
[5] = test system: 68 GPCRs, ion channels, and transporters; assay: Eurofin radioligand binding panel; conditions: 10 μM, 68 targets
rats = assay: spontaneous locomotor activity; format: in vivo; conditions: rat, 10–30 mg/kg i.p.

Sequence of glucagon receptor (GR) (P47871 26-477, species assumed): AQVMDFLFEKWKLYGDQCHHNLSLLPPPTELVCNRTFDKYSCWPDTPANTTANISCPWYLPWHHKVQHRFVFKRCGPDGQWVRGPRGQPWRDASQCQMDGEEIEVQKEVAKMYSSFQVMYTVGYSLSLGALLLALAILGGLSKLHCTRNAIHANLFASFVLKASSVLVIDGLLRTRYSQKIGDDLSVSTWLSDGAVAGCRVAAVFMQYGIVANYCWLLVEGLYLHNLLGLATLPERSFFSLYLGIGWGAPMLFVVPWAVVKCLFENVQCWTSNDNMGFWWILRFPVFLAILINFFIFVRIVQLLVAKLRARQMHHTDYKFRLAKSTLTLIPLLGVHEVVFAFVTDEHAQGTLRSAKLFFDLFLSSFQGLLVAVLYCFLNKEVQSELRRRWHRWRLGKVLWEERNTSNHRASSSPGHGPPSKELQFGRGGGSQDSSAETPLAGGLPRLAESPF
Sequence of human GLP-1R (P43220 24-463): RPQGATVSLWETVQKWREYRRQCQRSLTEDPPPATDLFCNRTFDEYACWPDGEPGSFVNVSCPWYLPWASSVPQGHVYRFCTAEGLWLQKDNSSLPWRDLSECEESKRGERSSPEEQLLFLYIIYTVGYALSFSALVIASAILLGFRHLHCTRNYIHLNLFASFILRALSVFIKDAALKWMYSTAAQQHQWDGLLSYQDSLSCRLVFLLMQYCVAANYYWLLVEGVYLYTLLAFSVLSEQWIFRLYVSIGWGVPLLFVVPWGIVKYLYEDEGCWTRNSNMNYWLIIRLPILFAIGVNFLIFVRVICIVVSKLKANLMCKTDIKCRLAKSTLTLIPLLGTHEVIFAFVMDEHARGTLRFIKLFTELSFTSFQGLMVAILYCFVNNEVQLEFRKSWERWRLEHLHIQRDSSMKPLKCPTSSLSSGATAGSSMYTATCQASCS
Sequence of melanocortin 4 receptor (MC4R) (P32245 whole entry, species assumed): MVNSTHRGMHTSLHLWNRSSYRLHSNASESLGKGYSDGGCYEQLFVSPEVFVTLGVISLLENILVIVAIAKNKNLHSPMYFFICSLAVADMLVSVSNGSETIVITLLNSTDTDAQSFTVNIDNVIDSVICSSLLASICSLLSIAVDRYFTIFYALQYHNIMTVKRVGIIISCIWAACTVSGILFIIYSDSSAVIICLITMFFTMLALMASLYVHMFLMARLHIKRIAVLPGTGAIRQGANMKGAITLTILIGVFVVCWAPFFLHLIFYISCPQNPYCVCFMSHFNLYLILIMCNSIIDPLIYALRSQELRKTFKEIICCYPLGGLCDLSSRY

Row | Structure (SMILES) | activity at MC4R [1] | activity at GR (glucagon receptor (GR)) | potentiation of glucose-stimulated insulin secretion (primary mouse islets; primary mouse islets, in the presence of 2) [fold] | calcium response in the absence of GLP-1 (human GLP-1R; compound alone) | rat CLHEP [2] [mL/min/kg] | clearance [3] [mL/min/kg] | Tmax [4] [min] | effect on insulin secretion (primary mouse islets; 30 μM, in presence of 10 nM 1, low (5.6 mM) and high (11 mM) glucose, 60 min) | GLP-1R PAM activity / mode (pure PAM or ago-PAM) (human GLP-1R; calcium mobilization) | highest inhibition in radioligand binding panel [5] [%] | half-life ([3]; intravenous, 1 mg/kg) [min] | effect on spontaneous locomotor activity (rats)
1 | CCN1CCCC1CNC(=O)c1cn(C2CCCC2)c(=O)c2c1c1ccccc1n2C (stereo not shown) [compound 8] | inactive | inactive | – | – | – | – | – | – | – | – | – | –
2 | CCN1CCC[C@H]1CNC(=O)c1cn(C2CCCC2)c(=O)c2c1c1ccccc1n2C [(S)-8] | – | no effect | ~1.5 | no calcium response | 69 | 92 | – | – | – | – | – | –
3 | CC(C)N1CCC[C@H]1CNC(=O)c1cn(C2CCCC2)c(=O)c2c1c1ccccc1n2C [(S)-9b, (S)-2-Cyclopentyl-N-((1-isopropylpyrrolidin-2-yl)methyl)-9-methyl-1-oxo-2,9-dihydro-1H-pyrido[3,4-b]indole-4-carboxamide] | – | – | – | – | – | – | 30 | significantly increased insulin secretion | ago-PAMs | ≤ 50 | ~60 | no effect on locomotion or sedative effects
